From patent US11786492B2, “Therapeutic agent for phosphodiesterase inhibition and its related disorders” (Novalead Pharma Inc, priority 2017, dated 2023)
Values belong to the compound of their own block, whether it stands above or below them.

How the values were obtained:
[1] = tested on: human PBMCs; test: Cell viability of human PBMCs, Alamar blue; type: cell-based
Method: Fresh human blood from healthy volunteer was collected in anticoagulant (5 mM) ethylene diamine tetra acetic acid (EDTA) containing tubes. The growth medium used was RPMI-1640 medium (with 3% FBS) and incubated at 37° C. for 60 mins in a 5% CO2 incubator with vehicle used as 1% DMSO. The cell viability was checked at various time points using Alamar blue and fluorescence readings were taken at excitation of 544 nm and emission of 590 nm.

[2] = tested on: HaCaT cells; test: Cell viability of HaCaT cells, Alamar blue; type: cell-based, human
Method: (§1) HaCaT cells were maintained in T-75 cm2 flask in Dulbecco's modified Eagle medium supplemented with FBS (10%), L-glutamine (2 mM), penicillin (100 ug/ml), streptomycin (100 ug/ml) at 37° C. in 5% CO2 incubator. Cell growth was maintained to 70-80% confluence for seeding and vehicle used was 1% DMSO. The cell viability was checked at various time points using Alamar blue and fluorescence readings were taken at excitation of 544 nm and emission of 590 nm.

[3] = biological target: T1, PDE2 (Human platelets) (Homo sapiens, UniProt O00408); test: Radiolabeled enzyme assay PDE2; type: biochemical; settings: read-out: % inhibition at 30 μM, 1.01 μM [3H]cAMP+cAMP
T1 construct: PDE2 (Human platelets); from tissue; host or cells: human platelets
Method: (§2) Enzyme assays have been optimized for incubation time, substrate concentration and method of end-product determination.

[4] = biological target: T2, PDE5 (Human platelets) (Homo sapiens, UniProt O76074); test: Radiolabeled enzyme assay PDE5; type: biochemical; settings: read-out: % inhibition at 30 μM, 1.01 μM [3H]cGMP+cGMP
T2 construct: PDE5 (Human platelets); from tissue; host or cells: human platelets
Method: as §2

[5] = biological target: PDE1A (Homo sapiens, UniProt P54750); test: Fluorescence polarization assay PDE1A; type: biochemical; settings: substrate cGMP, Ca-CaM
PDE1A, sequence (P54750 whole entry, species assumed): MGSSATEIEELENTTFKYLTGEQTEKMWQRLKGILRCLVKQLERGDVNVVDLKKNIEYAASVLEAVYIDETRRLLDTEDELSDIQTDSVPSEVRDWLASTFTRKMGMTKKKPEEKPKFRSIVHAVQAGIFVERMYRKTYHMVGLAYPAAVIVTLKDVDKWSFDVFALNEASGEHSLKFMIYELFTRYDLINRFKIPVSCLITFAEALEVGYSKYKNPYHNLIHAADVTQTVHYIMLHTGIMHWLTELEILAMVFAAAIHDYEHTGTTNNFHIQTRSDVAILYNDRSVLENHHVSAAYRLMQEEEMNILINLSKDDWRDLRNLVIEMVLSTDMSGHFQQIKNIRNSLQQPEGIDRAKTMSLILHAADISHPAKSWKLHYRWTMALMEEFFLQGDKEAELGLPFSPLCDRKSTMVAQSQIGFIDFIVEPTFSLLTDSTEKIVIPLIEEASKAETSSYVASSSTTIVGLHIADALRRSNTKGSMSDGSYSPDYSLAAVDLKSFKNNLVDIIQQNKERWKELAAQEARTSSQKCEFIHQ
Method: (§3) An experiment to check inhibition of various subtypes of the target Phosphodiesterase (PDE) enzyme in in-vitro assay was performed. […] PDE1A, PDE2A, PDE4A, PDE4B, PDE4C, PDE4D, PDE5A, PDE7A, PDE9A, PDE10A.

[6] = biological target: PDE2A (Homo sapiens, UniProt O00408); test: Fluorescence polarization assay PDE2A; type: biochemical; settings: substrate cGMP
Method: as §3

[7] = biological target: PDE4A (Homo sapiens, UniProt P27815); test: Fluorescence polarization assay PDE4A; type: biochemical; settings: substrate cAMP
PDE4A, sequence (P27815 whole entry, species assumed): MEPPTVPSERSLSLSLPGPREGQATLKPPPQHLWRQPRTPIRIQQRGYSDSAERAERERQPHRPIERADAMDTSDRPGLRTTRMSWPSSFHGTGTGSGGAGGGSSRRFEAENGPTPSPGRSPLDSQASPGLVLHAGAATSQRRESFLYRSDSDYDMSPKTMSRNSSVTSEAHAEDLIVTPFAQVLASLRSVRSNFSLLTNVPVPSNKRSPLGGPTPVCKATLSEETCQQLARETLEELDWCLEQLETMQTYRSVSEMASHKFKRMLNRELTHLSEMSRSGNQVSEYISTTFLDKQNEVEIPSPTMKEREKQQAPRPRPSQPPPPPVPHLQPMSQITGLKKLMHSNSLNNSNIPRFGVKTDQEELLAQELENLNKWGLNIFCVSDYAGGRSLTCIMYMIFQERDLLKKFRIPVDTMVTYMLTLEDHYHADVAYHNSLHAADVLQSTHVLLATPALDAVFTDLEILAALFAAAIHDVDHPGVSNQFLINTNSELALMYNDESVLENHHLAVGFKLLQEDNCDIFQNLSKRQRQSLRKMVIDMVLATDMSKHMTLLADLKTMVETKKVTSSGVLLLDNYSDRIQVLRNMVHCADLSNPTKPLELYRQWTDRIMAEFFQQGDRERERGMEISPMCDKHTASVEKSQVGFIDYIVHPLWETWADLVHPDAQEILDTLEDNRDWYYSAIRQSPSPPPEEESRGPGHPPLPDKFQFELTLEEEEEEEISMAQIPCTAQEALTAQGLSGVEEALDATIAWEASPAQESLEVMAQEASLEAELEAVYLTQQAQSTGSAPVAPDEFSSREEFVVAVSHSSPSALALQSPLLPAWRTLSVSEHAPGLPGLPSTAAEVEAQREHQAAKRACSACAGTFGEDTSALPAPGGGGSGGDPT
Method: as §3

[8] = biological target: PDE4B (Homo sapiens, UniProt Q07343); test: Fluorescence polarization assay PDE4B; type: biochemical; settings: substrate cAMP
PDE4B, sequence (Q07343 whole entry, species assumed): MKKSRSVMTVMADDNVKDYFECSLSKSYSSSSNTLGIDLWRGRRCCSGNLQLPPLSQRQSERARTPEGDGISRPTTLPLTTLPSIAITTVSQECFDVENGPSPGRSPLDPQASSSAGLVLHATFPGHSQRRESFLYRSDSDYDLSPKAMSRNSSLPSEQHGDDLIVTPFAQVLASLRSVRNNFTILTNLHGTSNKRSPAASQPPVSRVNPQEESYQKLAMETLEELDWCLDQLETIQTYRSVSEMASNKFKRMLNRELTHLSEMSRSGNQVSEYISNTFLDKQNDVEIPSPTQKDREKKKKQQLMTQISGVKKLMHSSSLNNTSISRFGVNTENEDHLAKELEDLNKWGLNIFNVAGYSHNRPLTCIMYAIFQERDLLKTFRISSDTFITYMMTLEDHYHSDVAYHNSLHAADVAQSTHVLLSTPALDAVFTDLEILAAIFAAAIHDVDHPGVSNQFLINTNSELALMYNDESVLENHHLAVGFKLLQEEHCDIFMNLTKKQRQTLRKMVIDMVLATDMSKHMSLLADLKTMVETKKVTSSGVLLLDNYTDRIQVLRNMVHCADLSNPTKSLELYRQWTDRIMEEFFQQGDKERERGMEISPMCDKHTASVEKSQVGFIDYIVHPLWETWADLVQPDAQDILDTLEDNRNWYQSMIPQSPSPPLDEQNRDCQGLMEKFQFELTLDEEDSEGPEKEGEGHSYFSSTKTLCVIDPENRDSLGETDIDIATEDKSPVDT
Method: as §3

[9] = biological target: PDE4C (Homo sapiens, UniProt Q08493); test: Fluorescence polarization assay PDE4C; type: biochemical; settings: substrate cAMP
PDE4C, sequence (Q08493 whole entry, species assumed): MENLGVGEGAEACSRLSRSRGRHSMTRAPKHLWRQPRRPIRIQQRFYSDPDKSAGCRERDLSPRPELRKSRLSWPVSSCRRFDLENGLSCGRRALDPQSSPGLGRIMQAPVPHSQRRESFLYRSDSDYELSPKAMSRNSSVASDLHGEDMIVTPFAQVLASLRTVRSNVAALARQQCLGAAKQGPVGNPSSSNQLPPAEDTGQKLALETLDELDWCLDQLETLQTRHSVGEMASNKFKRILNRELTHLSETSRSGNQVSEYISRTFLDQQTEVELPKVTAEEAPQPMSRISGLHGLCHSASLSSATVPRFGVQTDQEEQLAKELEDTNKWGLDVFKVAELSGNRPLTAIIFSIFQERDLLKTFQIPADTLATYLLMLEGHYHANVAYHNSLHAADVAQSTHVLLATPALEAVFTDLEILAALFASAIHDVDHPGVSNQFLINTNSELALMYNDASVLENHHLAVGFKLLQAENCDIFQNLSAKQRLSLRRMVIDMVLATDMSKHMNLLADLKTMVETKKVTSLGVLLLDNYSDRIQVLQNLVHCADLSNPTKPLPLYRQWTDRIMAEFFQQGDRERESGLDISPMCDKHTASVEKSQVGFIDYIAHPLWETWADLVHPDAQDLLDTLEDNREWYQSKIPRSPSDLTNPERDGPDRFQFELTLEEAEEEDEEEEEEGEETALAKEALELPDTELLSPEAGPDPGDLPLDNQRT
Method: as §3

[10] = biological target: PDE5A (Homo sapiens, UniProt O76074); test: Fluorescence polarization assay PDE5A; type: biochemical; settings: substrate cGMP
Method: as §3

[11] = biological target: PDE7A (Homo sapiens, UniProt Q13946); test: Fluorescence polarization assay PDE7A; type: biochemical; settings: substrate cAMP
PDE7A, sequence (Q13946 whole entry, species assumed): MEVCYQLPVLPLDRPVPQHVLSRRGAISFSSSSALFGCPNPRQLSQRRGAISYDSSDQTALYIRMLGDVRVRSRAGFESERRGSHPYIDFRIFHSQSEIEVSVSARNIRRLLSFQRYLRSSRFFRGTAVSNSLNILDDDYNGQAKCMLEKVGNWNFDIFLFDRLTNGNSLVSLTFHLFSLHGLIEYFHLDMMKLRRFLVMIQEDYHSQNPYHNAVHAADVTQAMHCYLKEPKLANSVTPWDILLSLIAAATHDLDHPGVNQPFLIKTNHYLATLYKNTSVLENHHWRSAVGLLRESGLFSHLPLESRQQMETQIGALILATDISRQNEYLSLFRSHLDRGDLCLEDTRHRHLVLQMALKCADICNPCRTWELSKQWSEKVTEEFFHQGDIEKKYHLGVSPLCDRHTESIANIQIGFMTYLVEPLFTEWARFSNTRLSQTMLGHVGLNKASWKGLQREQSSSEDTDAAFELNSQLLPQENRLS
Method: as §3

[12] = biological target: PDE9A (Homo sapiens, UniProt O76083); test: Fluorescence polarization assay PDE9A; type: biochemical; settings: substrate cGMP
PDE9A, sequence (O76083 whole entry, species assumed): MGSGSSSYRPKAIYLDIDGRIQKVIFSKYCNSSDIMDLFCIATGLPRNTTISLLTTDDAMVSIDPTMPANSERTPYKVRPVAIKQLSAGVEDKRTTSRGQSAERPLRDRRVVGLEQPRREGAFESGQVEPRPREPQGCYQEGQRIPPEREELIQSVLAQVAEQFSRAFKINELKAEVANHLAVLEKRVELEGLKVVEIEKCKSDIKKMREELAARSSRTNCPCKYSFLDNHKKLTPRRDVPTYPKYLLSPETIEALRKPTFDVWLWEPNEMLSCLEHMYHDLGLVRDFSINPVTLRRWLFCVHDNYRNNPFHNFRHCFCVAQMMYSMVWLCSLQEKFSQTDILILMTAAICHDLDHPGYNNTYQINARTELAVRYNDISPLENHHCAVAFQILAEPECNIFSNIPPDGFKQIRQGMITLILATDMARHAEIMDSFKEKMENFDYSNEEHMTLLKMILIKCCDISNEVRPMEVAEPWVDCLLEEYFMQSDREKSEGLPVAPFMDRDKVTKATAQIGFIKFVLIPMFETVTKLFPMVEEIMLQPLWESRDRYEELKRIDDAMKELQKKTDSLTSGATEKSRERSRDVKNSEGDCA
Method: as §3

[13] = biological target: PDE10A (Homo sapiens, UniProt Q9Y233); test: Fluorescence polarization assay PDE10A; type: biochemical; settings: substrate cAMP
PDE10A, sequence (Q9Y233 whole entry, species assumed): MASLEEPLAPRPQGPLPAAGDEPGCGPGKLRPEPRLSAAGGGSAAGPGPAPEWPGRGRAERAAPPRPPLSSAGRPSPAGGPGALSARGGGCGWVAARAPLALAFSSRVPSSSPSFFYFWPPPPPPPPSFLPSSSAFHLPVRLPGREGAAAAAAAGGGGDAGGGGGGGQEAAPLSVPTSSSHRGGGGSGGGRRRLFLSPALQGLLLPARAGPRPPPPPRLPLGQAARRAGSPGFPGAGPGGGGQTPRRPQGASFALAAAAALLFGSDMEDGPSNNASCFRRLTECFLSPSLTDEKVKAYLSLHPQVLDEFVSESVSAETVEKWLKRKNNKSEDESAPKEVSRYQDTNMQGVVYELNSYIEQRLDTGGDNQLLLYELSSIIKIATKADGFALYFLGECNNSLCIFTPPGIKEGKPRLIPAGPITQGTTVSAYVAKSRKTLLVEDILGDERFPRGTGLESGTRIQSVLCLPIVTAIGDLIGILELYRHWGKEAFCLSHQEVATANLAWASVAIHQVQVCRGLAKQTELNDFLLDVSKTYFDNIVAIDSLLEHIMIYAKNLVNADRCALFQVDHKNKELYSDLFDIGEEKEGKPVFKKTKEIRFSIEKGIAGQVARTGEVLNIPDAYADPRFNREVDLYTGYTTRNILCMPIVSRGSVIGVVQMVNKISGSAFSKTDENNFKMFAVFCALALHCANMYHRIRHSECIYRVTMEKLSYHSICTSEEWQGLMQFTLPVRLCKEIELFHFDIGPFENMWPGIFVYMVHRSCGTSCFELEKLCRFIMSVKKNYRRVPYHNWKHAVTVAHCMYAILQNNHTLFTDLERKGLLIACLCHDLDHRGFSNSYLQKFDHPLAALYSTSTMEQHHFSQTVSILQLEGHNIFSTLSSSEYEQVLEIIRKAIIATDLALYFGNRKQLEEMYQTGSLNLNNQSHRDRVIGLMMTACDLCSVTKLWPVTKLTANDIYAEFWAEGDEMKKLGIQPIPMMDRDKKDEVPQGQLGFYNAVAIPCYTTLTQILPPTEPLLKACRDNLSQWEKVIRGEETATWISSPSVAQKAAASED
Method: as §3

[14] = tested on: HaCaT cells; test: Keratinocyte (HaCaT) proliferation, MTT assay; type: cell-based, human; settings: Homo sapiens, HaCaT, 72 h; read-out: IC50 of cell proliferation
Method: An experiment to check keratinocyte proliferation inhibitory activity of selected compounds of Formula-I was performed to establish its application in skin disorders related to keratinocyte hyper-proliferation. HaCaT cells, a human immortalized cell line derived from keratinocytes, representing hyper-proliferating keratinocytes was investigated for anti-proliferative potential of the selected compounds by MTT assay.

[15] = tested on: TNF-α; test: TNF-α release from stimulated HaCaT cells, ELISA; type: cell-based, human; settings: IFN-γ 50 ng/mL, 48 hrs
Method: as §1
(§4) HaCaT cells were stimulated with different stimulators as follows: • a. Cells were exposed to stimulator LPS at 1 μg/mL for 48 hrs to stimulate IL-1β • b. Cells were exposed to stimulator IFN-γ at 50 ng/mL for 48 hrs to stimulate TNF-α, IL-6
(§5) After 48 hrs supernatants were collected and centrifuged to remove any cell debris and aliquots were used for ELISA.

[16] = tested on: IL-6; test: IL-6 release from stimulated HaCaT cells, ELISA; type: cell-based, human; settings: for IL-6 Conc.: IFN-γ 50 ng/mL, 48 hrs
Method: as §1, §4, §5

[17] = tested on: Imiquimod induced psoriasis in BALB/c mice; test: Imiquimod induced psoriasis model in Balb/c mice; settings: for % inhibition of Ear inflamn. / Histopathology Scores Epidermal Thickness / Histopathology Scores Hyperkeratosis / Histopathology Scores Rete Peg Prolifern. / PASI score / Spleen weight / IL23 Levels: twice daily; for IL23 Levels: ear tissue lysate
Method: BALB/c mice (Sex: Female, Age: 7-8 Weeks) were used for induction of psoriasis using IMQ. Topical application of imiquimod (IMQ) in mice can induce and exacerbate psoriasis closely resembling human psoriasis. […] 3%, 4% and 5% and positive control of Tenovate (Clobetasol) 0.05% cream. In all 63 mg cream containing 5% of IMQ was applied to dorsal area (shaved back) and right ear for 8 days. Topical formulations from Example 7 were used during this experiment.
The parameters investigated were ear thickness change, % inhibition of ear inflammation, Psoriatic Area Severity Index (PASI). Histopathology was performed of right ear and dorsal skin by H & E staining. The biomarker in this study was inflammatory cytokine IL-23 analyzed by ELISA obtained from tissue lysate of ear region where IMQ and doses were applied.

Structure (SMILES): COc1cccc2c1C(=O)c1c(O)c3c(c(O)c1C2=O)C[C@@](O)(C(=O)CO)C[C@@H]3O[C@H]1C[C@H](N)[C@H](O)[C@H](C)O1 [Doxorubicin]
% Viability (±S.E.M.) ([1]; 3 μM, 24 hrs): 110 ± 1%
% Viability (±S.E.M.) ([1]; 3 μM, 48 hrs): 70 ± 5%
% Viability (±S.E.M.) ([1]; 3 μM, 72 hrs): 52 ± 1%
% Viability (±S.E.M.) ([2]; 3 μM, 24 hrs): 74 ± 6%
% Viability (±S.E.M.) ([2]; 3 μM, 48 hrs): 108 ± 5%
% Viability (±S.E.M.) ([2]; 3 μM, 72 hrs): 110 ± 2%

inhibition at 30 µM [3]: 16%
inhibition at 30 µM [4]: 49%
IC50 [5]: 88.7 µM
IC50 [6]: 11.6 µM
IC50 [7]: 100 µM
IC50 [8]: 69.1 µM
IC50 [9]: 20.2 µM
IC50 [10]: 16.7 µM
IC50 [11]: 19.1 µM
IC50 [12]: 59.8 µM
IC50 [13]: 19 µM
Structure (SMILES): O=C(Nc1ccc([N+](=O)[O-])cc1Cl)c1cc(Cl)ccc1O [Niclosamide]
IC50 [14]: 3.25 µM
% Viability (±S.E.M.) ([1]; 0.01 μM, 24 hrs): 134 ± 7%
% Viability (±S.E.M.) ([1]; 0.01 μM, 48 hrs): 107 ± 1%
% Viability (±S.E.M.) ([1]; 0.01 μM, 72 hrs): 107 ± 6%
% Viability (±S.E.M.) ([1]; 1 μM, 24 hrs): 94 ± 4%
% Viability (±S.E.M.) ([1]; 1 μM, 48 hrs): 63 ± 0%
% Viability (±S.E.M.) ([1]; 1 μM, 72 hrs): 60 ± 1%
% Viability (±S.E.M.) ([1]; 100 μM, 24 hrs): 27 ± 5%
% Viability (±S.E.M.) ([1]; 100 μM, 48 hrs): 2 ± 1%
% Viability (±S.E.M.) ([1]; 100 μM, 72 hrs): −2 ± 0%
% Viability (±S.E.M.) ([2]; 0.1 μM, 24 hrs): 111 ± 9%
% Viability (±S.E.M.) ([2]; 0.1 μM, 48 hrs): 82 ± 3%
% Viability (±S.E.M.) ([2]; 0.1 μM, 72 hrs): 98 ± 6%
% Viability (±S.E.M.) ([2]; 1 μM, 24 hrs): 62 ± 4%
% Viability (±S.E.M.) ([2]; 1 μM, 48 hrs): 46 ± 0%
% Viability (±S.E.M.) ([2]; 1 μM, 72 hrs): 59 ± 11%
% Viability (±S.E.M.) ([2]; 5 μM, 24 hrs): 48 ± 1%
% Viability (±S.E.M.) ([2]; 5 μM, 48 hrs): 36 ± 2%
% Viability (±S.E.M.) ([2]; 5 μM, 72 hrs): 45 ± 8%
% Viability (±S.E.M.) ([2]; 10 μM, 48 hrs): 29 ± 1%
% Viability (±S.E.M.) ([2]; 10 μM, 72 hrs): 33 ± 2%
% Viability (±S.E.M.) ([2]; 50 μM, 24 hrs): 28 ± 1%
% Viability (±S.E.M.) ([2]; 50 μM, 48 hrs): 16 ± 0%
% Viability (±S.E.M.) ([2]; 50 μM, 72 hrs): 23 ± 7%
TNF-α Conc. ([15]; 0.05 μM): 2.5 ± 0.1 pg/mL
TNF-α Conc. ([15]; 0.1 μM): 2.8 ± 0.1 pg/mL
TNF-α Conc. ([15]; 0.25 μM): 2.5 ± 0.1 pg/mL
IL-6 Conc. ([16]; 0.05 μM): 103 ± 4 pg/mL
IL-6 Conc. ([16]; 0.1 μM): 76 ± 4 pg/mL
IL-6 release in HaCaT cells (in words) ([16]; 0.25 μM): Reduction in IL-6 release
IL-6 Conc. ([16]; 0.25 μM): 54 ± 11 pg/mL
% inhibition of Ear inflamn. ([17]; 1% topical): 27.1%
Histopathology Scores Epidermal Thickness ([17]; 1% topical): 6.8 ± 0.2
Histopathology Scores Hyperkeratosis ([17]; 1% topical): 0.8 ± 0.2
Histopathology Scores Rete Peg Prolifern. ([17]; 1% topical): 1.8 ± 0.2
PASI score ([17]; 1% topical): 15.8 ± 3.0
Spleen weight ([17]; 1% topical, Day 9): 265.2 ± 49.2 mg
IL23 Levels ([17]; 1% topical): 119.9 ± 7.8 pg/mL
% inhibition of Ear inflamn. ([17]; 2% topical): 30.4%
Histopathology Scores Epidermal Thickness ([17]; 2% topical): 5.6 ± 0.8
Histopathology Scores Hyperkeratosis ([17]; 2% topical): 1.4 ± 0.2
Histopathology Scores Rete Peg Prolifern. ([17]; 2% topical): 1.4 ± 0.2
PASI score ([17]; 2% topical): 17.2 ± 1.7
Spleen weight ([17]; 2% topical, Day 9): 214.4 ± 15.1 mg
IL23 Levels ([17]; 2% topical): 96.6 ± 10.9 pg/mL
reduction in the PASI score ([17]; 3% concentration): up to 50%
% inhibition of Ear inflamn. ([17]; 3% topical): 42.7%
Histopathology Scores Epidermal Thickness ([17]; 3% topical): 5.2 ± 0.2
Histopathology Scores Hyperkeratosis ([17]; 3% topical): 1.0 ± 0.0^$
Histopathology Scores Rete Peg Prolifern. ([17]; 3% topical): 0.5 ± 0.2
PASI score ([17]; 3% topical): 10.7 ± 4.1
Spleen weight ([17]; 3% topical, Day 9): 229.7 ± 18.7 mg
IL23 Levels ([17]; 3% topical): 83.6 ± 9.8 pg/mL
Spleen weight vs disease control (in words) ([17]; Niclosamide 2%, Nitazoxanide 3% and 5%, Clobetasol 0.05%, Day 9): marginal reduction in spleen weight
IL-23 level in ear tissue homogenates (in words) ([17]; different doses): reduction of IL-23 level
Hyperkeratosis (in words) ([17]; ear lobe histopathology): significant reduction in Hyperkeratosis
